According to publication PMC4092041 (Journal of cardiovascular pharmacology, 2014):

Legend:
[1] = test system: P450 metabolites of the ARA cascade / sEH; experiment: Oxylipin profiling: P450 and sEH metabolites; conditions: for Increase in plasma levels of the infused EpFA vs Ang II infused animals: subcutaneous infusion, corresponding groups
[2] = test system: LOX pathway; experiment: Oxylipin profiling: LOX metabolites; assay type: in vivo, mice; conditions: kidney; TPPU 0.2 mg/kg
[3] = Body weight gain; assay type: in vivo; conditions: Ang II infused mice
[4] = test system: angiotensin-II dependent hypertension; conditions: TPPU 0.2 and 0.6 mg/kg; cited from earlier work
[5] = test system: COX pathway; conditions: kidney; P < 0.05
[6] = test system: angiotensin-II dependent hypertension; experiment: Systolic blood pressure; assay type: in vivo, mice; conditions: overall mixed effects analysis, all days; TPPU alone 0.2 mg/kg in drinking water; P < 0.05
[7] = cited from earlier work
[8] = Stability of EpFAs at 37°C, neutral pH; assay type: physicochemical
[9] = test system: sEH; conditions: cited from earlier work

CCC(=O)N1CCC(NC(=O)Nc2ccc(OC(F)(F)F)cc2)CC1 [TPPU]
Increase in renal DiHOMEs vs 19, 20-EDP alone or Ang II infusion ([1]; TPPU 0.2 mg/kg, P < 0.05): approximately 3 fold
Renal levels of 19, 20-EDP vs Ang II alone or 19, 20-EDP treated animals ([1]; kidney, TPPU 0.2 mg/kg): significantly increased
Summed plasma concentration of DiHDPEs vs 19, 20-EDP treatment alone ([1]; plasma, TPPU 0.2 mg/kg): decreased significantly
Tissue levels of 15(S)-HETrE vs 19, 20-EDP treatment alone [2]: increased
Tissue levels of 15-HETE vs 19, 20-EDP treatment alone [2]: increased
Body weight gain [3]: did not alter body weight gain
Blood pressure in Ang II hypertension [4]: lower blood pressure to near baseline levels
Renal PGD2 vs Ang II infusion and 19, 20-EDP alone [5]: decreased
SBP (percent change from baseline) vs Ang II infused controls [6]: statistically lower SBP

CCCCc1nc(Cl)c(CO)n1Cc1ccc(-c2ccccc2-c2nn[nH]n2)cc1 [losartan]
Adverse effect on monovalent cation balance [7]: hyperkalemia
BP in normotensive animals [7]: reduced BP

CCCCCC1OC1C/C=C\C/C=C\C/C=C\CCCC(=O)O (stereo not shown) [14, 15-EET, epoxyeicosatrienoic acid]
Increase in plasma levels of the infused EpFA vs Ang II infused animals ([1]; P < 0.05): approximately 2 fold
Stability [8]: quite stable

CCC1OC1C/C=C\C/C=C\C/C=C\C/C=C\C/C=C\CCC(=O)O (stereo not shown) [19, 20-EDP, epoxydocosapentaenoic acid]
Tissue levels of 19, 20-EDP relative to tissue levels of 14, 15-EET ([1]; animals receiving these EpFAs): 6 times
Renal levels of 14, 15-EET vs Ang II infused animals ([1]; kidney, TPPU 0.2 mg/kg): significantly decreased
Increase in plasma levels of the infused EpFA vs Ang II infused animals ([1]; P < 0.05): approximately 2 fold
Rate of metabolism by sEH compared to most other fatty acid epoxides tested [9]: more slowly metabolized
Stability [8]: quite stable
Tissue levels of PGE2 vs Ang II infusion alone [5]: significantly decreased by half
